For this assay, the target named is T1, human M3 receptor (Homo sapiens, UniProt P20309).
T1 construct: expressed in transfected cells; host or cells: CHO cells (membrane suspension)
Briefly: Muscarinic 3 receptor binding assay (3H-scopolamine displacement, CHO cell membranes). As to conditions: inhibition of 3H-scopolamine binding to CHO cell suspension expressing the human M3 receptor. How it is done: The muscarinic 3 receptor binding assay was adapted from Perkin Elmer. […] Atropine (Sigma-Aldrich, St. Louis, Mo.) was used as a positive control. […] The binding reactions were terminated by filtering through the GFC plates and washing & filtering with ice-cold phosphate saline buffer (5×100 μL). Once the filters were dry, microscint scintillation cocktail (100 μL) was added to each well, allowed to sit for 20 min and the plates analyzed using a TopCount scintillation counter. […] Curve fitting of % inhibition versus concentration using Excell software allowed determination of IC50 values for test compounds.

T1 sequence (P20309 whole entry): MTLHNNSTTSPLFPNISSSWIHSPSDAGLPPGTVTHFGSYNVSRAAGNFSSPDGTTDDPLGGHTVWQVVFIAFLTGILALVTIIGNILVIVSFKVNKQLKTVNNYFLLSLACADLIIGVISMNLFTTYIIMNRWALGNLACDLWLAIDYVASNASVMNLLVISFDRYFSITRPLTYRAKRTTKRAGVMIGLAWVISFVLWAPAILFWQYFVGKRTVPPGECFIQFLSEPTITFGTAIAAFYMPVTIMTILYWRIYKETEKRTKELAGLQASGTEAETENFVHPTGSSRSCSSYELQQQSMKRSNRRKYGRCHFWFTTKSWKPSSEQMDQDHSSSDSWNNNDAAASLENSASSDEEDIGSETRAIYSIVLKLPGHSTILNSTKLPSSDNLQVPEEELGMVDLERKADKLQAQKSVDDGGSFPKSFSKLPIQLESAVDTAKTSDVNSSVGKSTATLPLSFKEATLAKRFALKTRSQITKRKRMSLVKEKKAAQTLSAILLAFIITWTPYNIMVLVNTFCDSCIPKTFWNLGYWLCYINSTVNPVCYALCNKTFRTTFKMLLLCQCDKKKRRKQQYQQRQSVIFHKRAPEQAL

What is called IC50 is the concentration at which inhibition is half-maximal. A low value points to greater potency in that assay. As to `CN(C)CCN(C)C(=O)C(c1ccccc1)C1CCCC1` (stereo not shown) [Compound 3c], the IC50 came out at 3.3 µM.

The record behind these values is patent US10307355B2, “N-aralkylcarbonyldiamine compounds and personal care compositions comprising the same” (Conopco, Inc., priority 2015, dated 2019).
